Measured values: patent US12312370B2, “Immunoproteasome inhibitors” (Principia Biopharma Inc., priority 2017, dated 2025)

Columns and labels:
[1] = target: immunoproteasome LMP7/B5i subunit (Homo sapiens, UniProt P28062); assay: Caliper-based proteasome enzymatic activity assay, LMP7; assay type: biochemical; settings: human recombinant immunoproteasome 0.3 nM, FAM-labeled peptide substrate 1 μM, rt 3 h; read-out: LMP7 subunit IC50
[2] = target: constitutive proteasome β5c unit (Homo sapiens, UniProt P28074); assay: Caliper-based proteasome enzymatic activity assay, β5c; assay type: biochemical; settings: human recombinant constitutive proteasome 0.3 nM, FAM-labeled peptide substrate 1 μM, rt 3 h; read-out: β5c subunit IC50
[3] = target: immunoproteasome LPM2/β1i subunit (Homo sapiens, UniProt P28065); assay: Caliper-based proteasome enzymatic activity assay, LMP2; assay type: biochemical; settings: human recombinant immunoproteasome 0.3 nM, FAM-labeled peptide substrate 1 μM, rt 2 h
PBMC/LMP7 = PBMC/LMP7 (Homo sapiens, UniProt P28062); assay: Proteasome-Glo inhibition of proteasome activity in cells, PBMC/LMP7; assay type: cell-based; settings: 2 h incubation at 37° C.
Method: (§1) The cell-based effects of a compound described herein on the immunoproteasome were determined by measuring inhibition of proteasome activity in cells using the Proteasome-Glo™ Cell-Based Reagent (Promega, Madison WI). The Proteasome-Glo™ assay contains a specific luminogenic proteasome substrate in a buffer optimized for cell permeabilization, proteasome activity, and luciferase activity. For the chymotrypsin-like activity (LMP7 and β5c), the peptide substrate is Suc-LLVY-aminoluciferin (Succinyl-leucine-leucine-valine-tyrosine-aminoluciferin). Cleavage of the substrate by proteasome results in luminescent signal which is proportional to the proteasome activity. The cell line THP-1 (a monocytic leukemia cell line enriched in immunoproteasome), the cell line HT-29 (a colorectal adenocarcinoma cell line enriched in constitutive proteasome), and primary human peripheral blood mononuclear cells (PBMC) were used to assess proteasome activity. Cells were seeded in a 96-well plate at 10,000 cells per well in RPMI 1640 high glucose medium with 10% fetal bovine scrum (FBS). Compound dilutions were added to cells starting at a concentration of 5 uM and decreasing in tripling dilutions. The final DMSO concentration was 1%. The concentration range was adjusted as needed for compounds of different potencies. The cells treated with compounds were incubated for 2 h at 37° C. in 5% CO2. At the end of the 2 hour incubation period, cells were transferred to white 384 well assay plates. 20 uL of Proteasome-Glo™ Reagent was added to each well and incubated for 10 minutes at rt. The plate was read in the Analyst HT instrument (Molecular Devices, Sunnyvale, CA) using luminescence mode. The percent inhibition of activity was plotted as a function of log compound concentration. The IC50 was then calculated for each compound using Prism software from GraphPad Software Inc. (San Diego, CA).

HT29/B5c = HT29/B5c (Homo sapiens, UniProt P28074); assay: Proteasome-Glo inhibition of proteasome activity in cells, HT29/B5c; assay type: cell-based; settings: HT-29 cells, 2 h incubation at 37° C.
Method: as §1

PBMC/LMP2 = PBMC/LMP2 (Homo sapiens, UniProt P28065); assay: Proteasome-Glo inhibition of proteasome activity in cells, PBMC/LMP2; assay type: cell-based; settings: 2 h incubation at 37° C.

Row | SMILES | IC50 [1] [nM] | IC50 [2] [nM] | IC50 [3] [nM] | IC50 (PBMC/LMP7) [nM] | IC50 (HT29/B5c) [nM] | IC50 (PBMC/LMP2) [nM]
1 | CC(C)C=C(C#N)C(=O)NCCCC[C@H](NC(=O)c1cc(Cl)ccc1Cl)C(=O)N[C@@H](Cc1ccccc1)B(O)O [Example 8, ((R)-1-((S)-6-(2-cyano-4-methylpent-2-enamido)-2-(2,5-dichlorobenzamido)hexanamido)-2-phenylethyl)boronic acid] | 2.4 | 4.4 | 79 | 39 | – | –
2 | CC(=O)N[C@@H](CCCCNC(=O)C(C#N)=CC(C)C)C(=O)N[C@@H](Cc1ccccc1)B(O)O [Example 11, ((R)-1-((S)-2-acetamido-6-(2-cyano-4-methylpent-2-enamido)hexanamido)-2-phenylethyl)boronic acid] | 2.6 | 4 | – | 390 | – | –
3 | CC(C)C=C(C#N)C(=O)NCCCC[C@H](NCC(F)(F)F)C(=O)N[C@@H](Cc1ccccc1)B(O)O [Example 13, ((R)-1-((S)-6-(2-cyano-4-methylpent-2-enamido)-2-((2,2,2-trifluoroethyl)amino)hexanamido)-2-phenylethyl)boronic acid] | 67.1 | 292 | > 5000 | 50 | 242 | –
4 | C=CC(=O)N(C)c1cccc(C[C@H](NC(=O)c2cc(Cl)ccc2Cl)C(=O)N[C@@H](Cc2ccccc2)B(O)O)c1 [Example 15, ((R)-1-((S)-2-(2,5-dichlorobenzamido)-3-(3-(N-methylacrylamido)phenyl)propanamido)-2-phenylethyl)boronic acid] | 4.3 | 5 | 2.7 | 35 | 141 | –
5 | CC(C)C=C(C#N)C(=O)N(C)c1cccc(C[C@H](NC(=O)c2cc(Cl)ccc2Cl)C(=O)N[C@@H](Cc2ccccc2)B(O)O)c1 [Example 20, ((R)-1-((S)-3-(3-(2-cyano-N,4-dimethylpent-2-enamido)phenyl)-2-(2,5-dichlorobenzamido)propanamido)-2-phenylethyl)boronic acid] | 2.4 | 8.1 | 483 | 34 | – | 208
6 | CC(C)C=C(C#N)C(=O)N(C)c1cccc(C[C@H](NC(=O)c2cnccn2)C(=O)N[C@@H](Cc2ccccc2)B(O)O)c1 [Example 21, ((R)-1-((S)-3-(3-(2-cyano-N,4-dimethylpent-2-enamido)phenyl)-2-(pyrazine-2-carboxamido)propanamido)-2-phenylethyl)boronic acid] | 2.5 | 21.1 | – | 73 | – | –
7 | N#CC(=CC1CC1)C(=O)N1CCC[C@@H]1COC[C@H](NCC(F)(F)F)C(=O)N[C@@H](Cc1ccccc1)B(O)O [Example 22, (R)-1-((S)-3-(((R)-1-(2-cyano-3-cyclopropylacryloyl)pyrrolidin-2-yl)methoxy)-2-(2,2,2-trifluoroethylamino)propanamido)-2-phenylethylboronic acid] | 22 | 308 | – | 39 | – | –
8 | CC(C)C=C(C#N)C(=O)N1CCCC[C@@H]1COC[C@H](NCC(F)(F)F)C(=O)N[C@@H](Cc1ccccc1)B(O)O [Example 25, ((R)-1-((S)-3-(((R)-1-(2-cyano-4-methylpent-2-enoyl)piperidin-2-yl)methoxy)-2-((2,2,2-trifluoroethyl)amino)propanamido)-2-phenylethyl)boronic acid] | 10 | 411 | 701 | 28 | – | –
9 | CC(C)C=C(C#N)C(=O)N1CCC(CCCC(=O)N[C@@H](Cc2ccccc2)B(O)O)CC1 [Example 29, (R)-(1-(4-(1-(2-cyano-4-methylpent-2-enoyl)piperidin-4-yl)butanamido)-2-phenylethyl)boronic acid] | 319 | 964 | > 5000 | 307 | 3590 | –
10 | CC(C)C=C(C#N)C(=O)N1CCC[C@@H]1CNC(=O)N[C@@H](Cc1ccccc1)B(O)O [Example 32, ((R)-1-(3-(((R)-1-(2-cyano-4-methylpent-2-enoyl)pyrrolidin-2-yl)methyl)ureido)-2-phenylethyl)boronic acid] | 37.2 | > 5000 | > 5000 | 110 | – | –
11 | Cc1ccc(C[C@H](NC(=O)OC[C@H]2CCN(C(=O)C(C#N)=CC(C)(C)C)C2)B(O)O)cc1 [Example 46, ((R)-1-(((((S)-1-(2-cyano-4,4-dimethylpent-2-enoyl)pyrrolidin-3-yl)methoxy)carbonyl)amino)-2-(p-tolyl)ethyl)boronic acid] | 4 | 1690 | > 5000 | – | – | –
12 | CC(C)(C=C(C#N)C(=O)N1CCC[C@@H]1CNC(=O)N[C@@H](Cc1coc2ccccc12)B(O)O)N1CCOCC1 [Example 47, ((R)-2-(benzofuran-3-yl)-1-(3-(((R)—1(2-cyano-4-methyl-4-morpholinopent-2-enoyl)pyrrolidin-2-yl)methyl)ureido)ethyl)boronic acid] | 3.5 | 1900 | > 5000 | – | – | –
13 | CC(C)(C=C(C#N)C(=O)N1CCC[C@@H]1CNC(=O)N[C@@H](Cc1coc2ccccc12)B(O)O)N1CCN(C2COC2)CC1 [Example 48, ((R)-2-(benzofuran-3-yl)-1-(3-(((R)-1-(2-cyano-4-methyl-4-(4-(oxetan-3-yl)piperazin-1-yl)pent-2-enoyl)pyrrolidin-2-yl)methyl)ureido)ethyl)boronic acid] | 8.7 | 383 | 3740 | – | – | –
14 | CC(C)(C=C(C#N)C(=O)N1C2CCC1(COC(=O)N[C@@H](Cc1ccccc1)B(O)O)CC2)N1CCC(F)(F)C1 [Example 57, (R)-(1-((((7-(2-cyano-4-(3,3-difluoropyrrolidin-1-yl)-4-methylpent-2-enoyl)-7-azabicyclo[2.2.1]heptan-1-yl)methoxy)carbonyl)amino)-2-phenylethyl)boronic acid] | 2.6 | 1620 | 3190 | – | – | –
15 | CC(C)(C=C(C#N)C(=O)N1CCC[C@H](OC(=O)N[C@@H](Cc2coc3ccccc23)B(O)O)C1)N1CCC(F)(F)C1 [Example 73, ((R)-2-(benzofuran-3-yl)-1-(((((S)-1-(2-cyano-4-(3,3-difluoropyrrolidin-1-yl)-4-methylpent-2-enoyl)piperidin-3-yl)oxy)carbonyl)amino)ethyl)boronic acid] | 1.1 | 54.6 | > 5000 | – | – | –
16 | CC(C)(C=C(C#N)C(=O)N1CCC[C@H](OC(=O)N[C@@H](Cc2ccc(F)cc2)B(O)O)C1)N1CCC(F)(F)C1 [Example 78, ((R)-1-(((((S)-1-(2-cyano-4-(3,3-difluoropyrrolidin-1-yl)-4-methylpent-2-enoyl)piperidin-3-yl)oxy)carbonyl)amino)-2-(4-fluorophenyl)ethyl)boronic acid] | 2.3 | 501 | > 5000 | – | – | –
17 | COC(=O)N1CCN(C(C)(C)C=C(C#N)C(=O)N2CCC[C@H](OC(=O)N[C@@H](Cc3ccccc3)B(O)O)C2)CC1 [Example 83, ((R)-1-(((((S)-1-(2-cyano-4-(4-(methoxycarbonyl)piperazin-1-yl)-4-methylpent-2-enoyl)piperidin-3-yl)oxy)carbonyl)amino)-2-phenylethyl)boronic acid] | 2.3 | 944 | > 5000 | – | – | –
18 | C=CC(=O)N1CC[C@H](OC(=O)N[C@@H](Cc2ccccc2)B(O)O)C1 [Example 88, ((R)-1-(((((S)-1-acryloylpyrrolidin-3-yl)oxy)carbonyl)amino)-2-phenylethyl)boronic acid] | 113 | 1610 | 1860 | – | – | –
